Each structure is given as a SMILES string. Values after ≈ are worked out from the molar mass of the structure shown.

This note sets out measurements from patent US4204063A, “N(Aminoalkyl)-naphthalimides and their derivatives” (priority 1977, dated 1980).

The first assay has as its system He-La cells. Nature of the assay: cytotoxic activity on He-La cells (inhibition of cellular growth, protein determination). In kind it is cell-based. Particulars: Homo sapiens, HeLa, 72 h, read-out: ID50 (inhibitory dose 50, dose which inhibits cellular growth by 50%). On the procedure:
Testing commences using a culture having approximately 125,000 cells per milliliter. They are dispersed with trypsin and are maintained in suspension by stirring until the moment they are placed in tubes.
After 72 hours the results are read.
For `Nc1cc2c3c(cccc3c1)C(=O)N(CCN1CCCC1)C2=O` [Example 11, N-[2-(1-pyrrolidino)-ethyl]-3-amino-1,8-naphthalimide], the IC50 came to 1.5 µg/mL (≈ 4.85 µM).

The same assay, now with this note: Homo sapiens, HeLa; He-La cells, monolayer, 72 hours, protein determination (modified Lowry); read-out: ID50 (inhibitory dose 50, dose which inhibits cellular growth by 50%).
For `CN1CCN(CCCN2C(=O)c3cccc4cc([N+](=O)[O-])cc(c34)C2=O)CC1` [Example 5, N-3-(4-methyl-1-piperazino)-propyl-3-nitro-1,8-naphthalimide], the IC50 came to 2 µg/mL (≈ 5.23 µM).

In the case of `CCN(CC)CCN1C(=O)c2cccc3cc(N)cc(c23)C1=O` [Example 10, N-(2-diethylaminoethyl)-3-amino-1,8-naphthalimide], the IC50 stood at 3 µg/mL (≈ 9.63 µM).

Take `CN1CCN(CCCN2C(=O)c3cccc4cc(N)cc(c34)C2=O)CC1` [Example 16, N-[3-(4-methyl-1-piperazino)-propyl]-3-amino-1,8-naphthalimide]: the IC50 worked out at 10 µg/mL (≈ 28.4 µM).

As for `CN(C)CCN1C(=O)c2cccc3cc(N)cc(c23)C1=O` [Example 9], the IC50 was found to be 2.5 µg/mL (≈ 8.82 µM).

As to `CCOC(=O)Nc1cc2c3c(cccc3c1)C(=O)N(CCN1CCCC1)C2=O` [Example 29, N-[2-(1-pyrrolidino)-ethyl]-3-ethoxycarbonylamino-1,8-naphthalimide], the IC50 came to 10 µg/mL (≈ 26.2 µM).

For `CCN(CC)CCCN1C(=O)c2cccc3cc([N+](=O)[O-])cc(c23)C1=O` [Example 2, N-(3-diethylaminopropyl)-3-nitro-1,8-naphthalimide], the IC50 was 5 µg/mL (≈ 14.1 µM).

Consider `CN(C)CCN1C(=O)c2cccc3cc(O)cc(c23)C1=O` [Example 23, N-(2-dimethylaminoethyl)-3-hydroxy-1,8-naphthalimide], for which the IC50 came to 3 µg/mL (≈ 10.6 µM).

Regarding `CN(C)CCCN1C(=O)c2cccc3cc(Cl)cc(c23)C1=O` [Example 22, N-(3-dimethylaminopropyl)-3-chloro-1,8-naphthalimide], the IC50 is 2 µg/mL (≈ 6.31 µM).

Consider `CCOC(=O)Nc1cc2c3c(cccc3c1)C(=O)N(CCN(C)C)C2=O` [Example 28, N-(dimethylaminoethyl)-3-ethoxycarbonylamino-1,8-naphthalimide], for which the IC50 was 10 µg/mL (≈ 28.1 µM).

Turning to `CCN(CC)CCCN1C(=O)c2cccc3cc(N)cc(c23)C1=O` [Example 15, N-(3-diethylaminopropyl)-3-amino-1,8-naphthalimide], the IC50 was 25 µg/mL (≈ 76.8 µM).

With `CN(C)N1C(=O)c2cccc3cc([N+](=O)[O-])cc(c23)C1=O` [Example 6, N-dimethylamino-3-nitro-1,8-naphthalimide], the IC50 was more than 100 µg/mL.

As for `CC(=O)Nc1cc2c3c(cccc3c1)C(=O)N(CCN(C)C)C2=O` [Example 30, N-(2-dimethylaminoethyl)-3-acetylamino-1,8-naphthalimide], the IC50 was 4 µg/mL (≈ 12.3 µM).

On to `CN(C)N1C(=O)c2cccc3cc(N)cc(c23)C1=O` [Example 17, N-dimethylamino-3-amino-1,8-naphthalimide], for which the IC50 was found to be 100 µg/mL (≈ 392 µM).

Turning to `O=C1c2cccc3cc(Cl)cc(c23)C(=O)N1CCN1CCCCC1` [Example 20, N-[2-(1-piperidino)-ethyl]-3-chloro-1,8-naphthalimide], the IC50 is 3.5 µg/mL (≈ 10.2 µM).

On to `O=C1c2cccc3cc(Cl)cc(c23)C(=O)N1CCN1CCOCC1` [Example 21, N-[2-(1-morpholino)-ethyl]-3-chloro-1,8-naphthalimide], for which the IC50 came to 100 µg/mL (≈ 290 µM).

As for `CN(C)CCN1C(=O)c2cccc3cc(C(C)(C)C)cc(c23)C1=O` [Example 33, N-(2-dimethylaminoethyl)-3-tert-butyl-1,8-naphthalimide], the IC50 came to 14 µg/mL (≈ 43.2 µM).

Turning to `CC(=O)Nc1cc2c3c(cccc3c1)C(=O)N(CCN1CCCC1)C2=O` [Example 31, N-[2-(1-pyrrolidino)-ethyl]-3-acetylamino-1,8-naphthalimide], the IC50 was 5 µg/mL (≈ 14.2 µM).

For `COc1cc2c3c(cccc3c1)C(=O)N(CCN1CCCC1)C2=O` [Example 27, N-[2-(1-pyrrolidino)-ethyl]-3-methoxy-1,8-naphthalimide], the IC50 stood at 0.75 µg/mL (≈ 2.31 µM).

`Nc1cc2c3c(cccc3c1)C(=O)N(CCN1CCOCC1)C2=O` [Example 13, N-[2-(1-morpholino)-ethyl]-3-amino-1,8-naphthalimide]: the IC50 was found to be 10 µg/mL (≈ 30.7 µM).

As to `CN(C)CCCN1C(=O)c2cccc3cc([N+](=O)[O-])cc(c23)C1=O` [Example 1, N-(3-dimethylaminopropyl)-3-nitro-1,8-naphthalimide], the IC50 turned out to be 1 µg/mL (≈ 3.05 µM).

In the case of `O=C1c2cccc3cc(S(=O)(=O)O)cc(c23)C(=O)N1CCN1CCCC1` [Example 32, N-[2-(1-pyrrolidino)ethyl]-3-sulfo-1,8-naphthalimide], the IC50 is more than 100 µg/mL.

In the case of `O=C1c2cccc3cc(Cl)cc(c23)C(=O)N1CCN1CCCC1` [Example 19, N-[2-(1-pyrrolidino)-ethyl]-3-chloro-1,8-naphthalimide], the IC50 turned out to be 1.5 µg/mL (≈ 4.56 µM).

With `NC(=O)NN1C(=O)c2cccc3cc([N+](=O)[O-])cc(c23)C1=O` [Example 8, N-ureyl-3-nitro-1,8-naphthalimide], the IC50 was more than 100 µg/mL.

Turning to `CCN1CCCC(N2C(=O)c3cccc4cc([N+](=O)[O-])cc(c34)C2=O)C1` (stereo not drawn) [Example 4, N-3-(1-ethylpiperidino)-3-nitro-1,8-naphthalimide], the IC50 worked out at 6 µg/mL (≈ 17 µM).

`O=C1c2cccc3cc(O)cc(c23)C(=O)N1CCN1CCOCC1` [Example 25, N-[2-(1-morpholino)-ethyl]-3-hydroxy-1,8-naphthalimide]: the IC50 amounted to 100 µg/mL (≈ 306 µM).

As for `COc1cc2c3c(cccc3c1)C(=O)N(CCN(C)C)C2=O` [Example 26, N-(2-dimethylaminoethyl)-3-methoxy-1,8-naphthalimide], the IC50 was 1.5 µg/mL (≈ 5.03 µM).

For `CN(C)CCCN1C(=O)c2cccc3cc(N)cc(c23)C1=O` [Example 14, N-(3-dimethylaminopropyl)-3-amino-1,8-naphthalimide], the IC50 turned out to be 5 µg/mL (≈ 16.8 µM).

For the compound `O=C1c2cccc3cc([N+](=O)[O-])cc(c23)C(=O)N1N1CCCC1` [Example 7, N-(1-pyrrolidino)-3-nitro-1,8-naphthalimide], the IC50 is more than 100 µg/mL.

As for `Nc1cc2c3c(cccc3c1)C(=O)N(CCN1CCCCC1)C2=O` [Example 12, N-[2-(1-piperidino)-ethyl]-3-amino-1,8-naphthalimide], the IC50 stood at 8 µg/mL (≈ 24.7 µM).

Turning to `O=C1c2cccc3cc([N+](=O)[O-])cc(c23)C(=O)N1CCN1CCOCC1` [Example 3, N-2-(N-morpholino)-ethyl-3-nitro-1,8-naphthalimide], the IC50 came to 20 µg/mL (≈ 56.3 µM).

With `O=C1c2cccc3cc(O)cc(c23)C(=O)N1CCN1CCCC1` [Example 24, N-[2-(1-pyrrolidino)-ethyl]-3-hydroxy-1,8-naphthalimide], the IC50 came out at 3.5 µg/mL (≈ 11.3 µM).

Take `CN(C)CCN1C(=O)c2cccc3cc(Cl)cc(c23)C1=O` [Example 18, N-(2-dimethylaminoethyl)-3-chloro-1,8-naphthalimide]: the IC50 is 0.8 µg/mL (≈ 2.64 µM).
